Laboratory results: article PMC10095747, “Modulatory Effects of Atractylodin and β-Eudesmol on Human Cytochrome P450 Enzymes: Potential Drug-Drug Interactions” (Molecules, 2023)
Like-named read-outs stand apart in the source and are kept apart here.

Legend:
rCYP2C9 = rCYP2C9 (Homo sapiens, UniProt P11712); experiment: luminogenic P450-Glo CYP450 inhibition assay, rCYP2C9; conditions: three independent experiments
Description: (§1) The luminescent cytochrome P450 assay was used to determine CYP450-mediated (CYP1A2, 2C9, 2C19, 2D6, and 3A4) metabolism of atractylodin and β-eudesmol. The assay consisted of each recombinant human CYP450 (rCYP450), control membranes lacking P450 activity, a luminogenic CYP450 substrate (luciferin-ME substrate for rCYP1A2, luciferin-H substrate for rCYP2C9, luciferin-H EGE substrate for rCYP2C19, luciferin-ME EGE substrate for rCYP2D6, and luciferin-IPA substrate for rCYP3A4), KPO4 buffer, luciferin free water, NADPH regeneration system, and a luciferin detection reagent. The rCYP450 enzymes were generated from a baculovirus-infected insect cell expression system. The concentrations of the recombinant CYPs used were 0.5 (rCYP1A2 and rCYP2C9), 0.25 (rCYP2C19 and rCYP2D6) or 0.2 (rCYP3A4) pmol (0.5μL) per reaction. […] A luciferin product was produced after adding 25 µL of NADPH Regeneration System (solution A, solution B, and luciferin-free water) and incubated at 37 °C for 10 (rCYP1A2 and rCYP3A4), 20 (rCYP2C19 and rCYP2C9) or 30 (rCYP2D6) minutes. The reaction was stopped and converted to a luminescent signal after adding Luciferin Detection Reagent (50 µL) and incubated at 25 °C for 20 min. The luminescence signals obtained were determined using a Varioskan® Flash microplate reader (Waltham, MA, USA). The magnitude of luminescence in all of the samples represented CYP450 activity. […] All stock solutions were diluted with luciferin-free water until the final concentration of organic solvent was less than 0.25% (v/v) of the total reaction. The concentration range of atractylodin and β-eudesmol used were 2.74–686 µM and 2.25–562 µM, respectively. […] The concentration that inhibited the activity of each rCYP450 by 50% (IC50) was calculated using Calcusyn software (Cambridge, UK). Data are reported as the median (range) of the three independent experiments.

rCYP3A4 = rCYP3A4 (Homo sapiens, UniProt P08684); experiment: luminogenic P450-Glo CYP450 inhibition assay, rCYP3A4; conditions: three independent experiments
Description: as §1

mCYP1A2 mRNA = experiment: ex vivo mCYP1A2 mRNA expression in mouse livers (real-time PCR); conditions: male ICR mice, daily oral 100 mg/kg body weight, vs control
Description: (§2) Eight-week-old male ICR (Imprinting Control Region) mice weighing 35–40 g were used to investigate the modulatory effects of atractylodin and β-eudesmol on mCYP1A2 and mCYP3A11. The study protocol was approved by the Ethics Committee for Animal Research at Thammasat University (protocol number 016/2020). All animals were obtained from Nomura Siam International Co., Ltd. (Bangkok, Thailand). The animals were acclimatized for one week before the experiments. A total of 36 mice were allocated to three groups (i) control group (3 mice), (ii) atractylodin-treated group, and (iii) β-eudesmol-treated group. For atractylodin and β-eudesmol-treated groups, animals were fed with 100 mg/kg body weight of each compound for 1, 7, 14, and 21 (3 mice for each dose). Experiments were performed under the guidelines for the care and use of laboratory animals in a controlled environment of 12 h dark/light cycle, temperature 22 ± 2 °C, and relative humidity 30–70% at the Thammasat University Animal Center. Animals were observed daily for changes in signs and symptoms by a veterinarian. Mice were allowed access to the food pellets and water ad libitum.
Total mRNA was extracted from mouse livers using Trizol according to the manufacturer’s instructions. The concentration of mRNA was quantified by a nanodrop spectrophotometer. The First-Strand cDNA Synthesis Kit was used to generate cDNA from RNA. The CFX96 Touch Real-Time PCR Detection System was used to determine the expressions of mCYP1A2, mCYP3A11, and β-actin genes using the iTaq Universal SYBR Green Supermix. The PCR condition and the delta-delta Ct calculation were according to the previously described article. All primers used in this study were synthesized by Gibthai Co. Ltd. (Bangkok, Thailand).

mCYP1A2 [1] = experiment: ex vivo mCYP1A2 protein expression in mouse liver microsomes (western blot); conditions: daily oral 100 mg/kg body weight
Description: as §2
(§3) Mouse liver samples were cut into small pieces, and the liver microsomes were prepared as described previously. The concentrations of proteins in the microsomes were determined using Pierce™ BCA Protein Assay Kit. mCYP1A2 and mCYP3A11 activities were evaluated based on phenacetin O-deethylation and nifedipine oxidation activities, respectively. The incubation mixture of 500 µL consisted of microsomes, substrate ([…]), and NADPH. […] The final organic solvent concentration in the incubation mixture was not higher than 1%. Each experiment was repeated three times (duplicated each). Determination of the concentrations of metabolites of mCYP1A2 (paracetamol) and mCYP3A11 (dehydronifedipine) in the reaction was performed using HPLC Agilent 1260 Infinity II with mobile gradient phase between methanol and distilled water at an initial ratio of 20:80 (v:v) and UV detection (240 nm). Calibration curves for both CYP450 activities were created over a concentration range of 1–50 µM. Oxidized nifedipine concentrations were determined using HPLC as follows: UV detection at 235 nm with an isocratic mobile phase consisting of methanol and distilled water (70:30, v:v). […] In each analytical batch, quality control (QC) samples were run in duplicate at low, medium, and high concentrations. Acceptance criteria were four out of six QC analyses falling within 100 ± 15% of the nominal values.
The microsomal protein concentration for both mCYP1A2 and […] was 25 μg protein per lane. Proteins were denatured by combining equal volumes of liver microsomes with sample buffer (1:19 (v:v) of 2-mercaptoethanol and 2x Laemmle buffer) and heating at 100 °C for 5 min. Proteins were separated using 12% SDS-PAGE according to their size characteristics before being migrated to nitrocellulose blotting membranes.

mCYP1A2 [2] = experiment: ex vivo mCYP1A2 activity in mouse liver microsomes (phenacetin O-deethylation); conditions: daily oral 100 mg/kg body weight
Description: Phenacetin and nifedipine are substrates of CYP1A2 and CYP3A11, respectively. Both substrates are converted via the CYP enzyme to paracetamol and dehydronefedipine, respectively. The concentrations of paracetamol and dehydronefedipine were used to determine the activities of mCYP1A2 and mCYP3A11. The effects of atractylodin and β-eudesmol on mCYP1A2 and mCYP3A11 activities were, respectively, determined by measuring paracetamol (mCYP1A2-dependent metabolite) and dehydronifiedipine (mCYP3A11-dependent metabolite) concentrations.
as §2, §3

Chain of rCYP3A4 (P08684 whole entry): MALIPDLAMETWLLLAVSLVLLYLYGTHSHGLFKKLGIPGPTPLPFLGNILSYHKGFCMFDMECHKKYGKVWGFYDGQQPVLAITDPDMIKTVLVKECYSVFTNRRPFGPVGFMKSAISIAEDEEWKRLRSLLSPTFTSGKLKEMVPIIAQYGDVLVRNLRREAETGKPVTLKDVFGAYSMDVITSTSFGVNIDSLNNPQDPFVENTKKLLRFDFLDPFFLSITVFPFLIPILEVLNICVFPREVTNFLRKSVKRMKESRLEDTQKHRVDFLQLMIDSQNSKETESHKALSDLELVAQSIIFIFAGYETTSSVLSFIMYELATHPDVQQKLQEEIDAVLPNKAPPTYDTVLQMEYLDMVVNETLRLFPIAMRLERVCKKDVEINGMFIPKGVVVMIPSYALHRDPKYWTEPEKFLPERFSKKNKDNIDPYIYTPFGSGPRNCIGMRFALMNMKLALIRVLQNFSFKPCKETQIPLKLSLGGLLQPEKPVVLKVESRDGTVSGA
Chain of rCYP2C9 (P11712 whole entry): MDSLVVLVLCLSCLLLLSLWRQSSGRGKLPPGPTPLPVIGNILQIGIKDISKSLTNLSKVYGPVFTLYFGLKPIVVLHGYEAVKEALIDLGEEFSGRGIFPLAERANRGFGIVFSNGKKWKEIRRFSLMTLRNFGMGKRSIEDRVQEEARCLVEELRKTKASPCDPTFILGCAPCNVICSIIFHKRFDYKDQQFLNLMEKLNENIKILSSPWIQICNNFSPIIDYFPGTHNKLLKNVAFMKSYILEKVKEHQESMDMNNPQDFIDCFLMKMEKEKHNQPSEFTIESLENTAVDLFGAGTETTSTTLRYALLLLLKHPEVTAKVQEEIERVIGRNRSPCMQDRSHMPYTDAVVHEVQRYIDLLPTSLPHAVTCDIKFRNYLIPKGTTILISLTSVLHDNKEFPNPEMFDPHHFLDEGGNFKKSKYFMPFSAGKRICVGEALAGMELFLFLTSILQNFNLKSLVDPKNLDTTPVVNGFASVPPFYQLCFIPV

C=C1CCC[C@]2(C)CC[C@@H](C(C)(C)O)C[C@@H]12 [β-Eudesmol]
IC50 (rCYP2C9; Median IC50 (Range) rCYP2C9, median (range)): 533 µM | IC50 (rCYP3A4; Median IC50 (Range) rCYP3A4, median (range)): 219 µM | Fold-changes of mCYP1A2 mRNA levels (mCYP1A2 mRNA; 1 day): 2.63 fold | Fold-changes of mCYP1A2 mRNA levels (mCYP1A2 mRNA; 7 days): 1.44 fold | Fold-changes of mCYP1A2 mRNA levels (mCYP1A2 mRNA; 14 days): 1.37 fold | Fold-changes of mCYP1A2 mRNA levels (mCYP1A2 mRNA; 21 days): 0.91 fold | Protein expression ratio of mCYP1A2 (mCYP1A2 [1]; 1 day, control 1.5): 1.06 | Protein expression ratio of mCYP1A2 (mCYP1A2 [1]; 7 days, control 1.88): 1.83 | Protein expression ratio of mCYP1A2 (mCYP1A2 [1]; 14 days, control 2.42): 2.05 | Protein expression ratio of mCYP1A2 (mCYP1A2 [1]; 21 days, control 2.20, listed as β-eudesmol, 100 mg/kg): significantly downregulated | Protein expression ratio of mCYP1A2 (mCYP1A2 [1]; 21 days, control 2.20, listed as β‐eudesmol, 100 mg/kg): 1.00 | Paracetamol concentration (mCYP1A2 activity) (mCYP1A2 [2]; 1 day, control 11.40): 12.35 µM | Paracetamol concentration (mCYP1A2 activity) (mCYP1A2 [2]; 7 days, control 12.25): 11.80 µM | Paracetamol concentration (mCYP1A2 activity) (mCYP1A2 [2]; 14 days, control 12.80): 13.25 µM | Paracetamol concentration (mCYP1A2 activity) (mCYP1A2 [2]; 21 days, control 12.90, listed as β-eudesmol, 100 mg/kg): significantly decreased | Paracetamol concentration (mCYP1A2 activity) (mCYP1A2 [2]; 21 days, control 12.90, listed as β‐eudesmol, 100 mg/kg): 8.30 µM

C/C=C/C#CC#C/C=C/c1ccco1 [Atractylodin]
Median IC50 (Range) rCYP2C9 (rCYP2C9; median (range)): >125 µg/mL | IC50 (rCYP2C9; read-out: Median IC50 (Range) rCYP2C9, median (range)): > 686 µM | Median IC50 (Range) rCYP3A4 (rCYP3A4; median (range)): >125 µg/mL | IC50 (rCYP3A4; read-out: Median IC50 (Range) rCYP3A4, median (range)): > 686 µM | Fold-changes of mCYP1A2 mRNA levels (mCYP1A2 mRNA; 1 day, 100 mg/kg): 1.6 fold | Fold-changes of mCYP1A2 mRNA levels (mCYP1A2 mRNA; 1 day, listed as Atactylodin, 100 mg/kg): 1.60 fold | Fold-changes of mCYP1A2 mRNA levels (mCYP1A2 mRNA; 7 days, 100 mg/kg): 1.2 fold | Fold-changes of mCYP1A2 mRNA levels (mCYP1A2 mRNA; 7 days, listed as Atactylodin, 100 mg/kg): 1.20 fold | Fold-changes of mCYP1A2 mRNA levels (mCYP1A2 mRNA; 14 days): 0.89 fold | Fold-changes of mCYP1A2 mRNA levels (mCYP1A2 mRNA; 21 days): 0.71 fold | Protein expression ratio of mCYP1A2 (mCYP1A2 [1]; 1 day, control 1.5): 1.39 | Protein expression ratio of mCYP1A2 (mCYP1A2 [1]; 7 days, control 1.88): 1.55 | Protein expression ratio of mCYP1A2 (mCYP1A2 [1]; 14 days, control 2.42): 1.77 | Protein expression ratio of mCYP1A2 (mCYP1A2 [1]; 21 days, control 2.20, 100 mg/kg): significantly downregulated | Protein expression ratio of mCYP1A2 (mCYP1A2 [1]; 21 days, control 2.20, listed as Atactylodin, 100 mg/kg): 1.33 | Paracetamol concentration (mCYP1A2 activity) (mCYP1A2 [2]; 1 day, control 11.40, 100 mg/kg): significantly increased | Paracetamol concentration (mCYP1A2 activity) (mCYP1A2 [2]; 1 day, control 11.40, listed as Atactylodin, 100 mg/kg): 15.80 µM | Paracetamol concentration (mCYP1A2 activity) (mCYP1A2 [2]; 7 days, control 12.25): 12.00 µM | Paracetamol concentration (mCYP1A2 activity) (mCYP1A2 [2]; 14 days, control 12.80): 14.50 µM | Paracetamol concentration (mCYP1A2 activity) (mCYP1A2 [2]; 21 days, control 12.90, 100 mg/kg): significant decrease | Paracetamol concentration (mCYP1A2 activity) (mCYP1A2 [2]; 21 days, control 12.90, listed as Atactylodin, 100 mg/kg): 10.60 µM
